Earlier results in paper PMC7032176 (Asian Journal of Pharmaceutical Sciences, 2018).

Tests used:
[1] = at 25 °C

CC(C)(Sc1cc(C(C)(C)C)c(O)c(C(C)(C)C)c1)Sc1cc(C(C)(C)C)c(O)c(C(C)(C)C)c1 [Probucol]
oral bioavailability: up to 6% | water solubility [1]: about 5 ng/ml
